Measurements from patent EP2706118A1, “Method for the production of primary amines” (BASF SE, priority 2012, dated 2014).

Experiment: Solubility in the aqueous reaction mixture (remark in reaction conditions)
Assay type: physicochemical
Conditions: ~10 mM in 20 mM bicine-buffer (pH 8.8), used an emulsion
Description: • ~10 mM BDG-Aldehyde (very low solubility, used an emulsion) • 10 mM L-alanine • 20 mM bicine-buffer (pH 8.8) • Cv ω-TA (0.75 mg) • Total volume: 1 ml • c) The conversion of BDG-alcohol to BDG-amine by ADH + ω-TAs was confirmed by LC-MS (Figure 3 C) and thin layer chromatography (Figure 4, lanes 1-3).

solubility: very low
SMILES: CCCCOCCOCC=O [BDG-Aldehyde]
